Experimental data taken from the Kinase Knowledgebase extract (Sharma et al. 2016).

Assays:
PIK3CA (human) = PIK3CA (human) (UniProt P42336); test: Assessment of PIK3CA Kinase Activity
PIK3CB (Human) = PIK3CB (Human) (UniProt P42338); test: Assessment of PIK3CB Kinase Activity
Sequence of PIK3CB (Human) (P42338 whole entry, looked up): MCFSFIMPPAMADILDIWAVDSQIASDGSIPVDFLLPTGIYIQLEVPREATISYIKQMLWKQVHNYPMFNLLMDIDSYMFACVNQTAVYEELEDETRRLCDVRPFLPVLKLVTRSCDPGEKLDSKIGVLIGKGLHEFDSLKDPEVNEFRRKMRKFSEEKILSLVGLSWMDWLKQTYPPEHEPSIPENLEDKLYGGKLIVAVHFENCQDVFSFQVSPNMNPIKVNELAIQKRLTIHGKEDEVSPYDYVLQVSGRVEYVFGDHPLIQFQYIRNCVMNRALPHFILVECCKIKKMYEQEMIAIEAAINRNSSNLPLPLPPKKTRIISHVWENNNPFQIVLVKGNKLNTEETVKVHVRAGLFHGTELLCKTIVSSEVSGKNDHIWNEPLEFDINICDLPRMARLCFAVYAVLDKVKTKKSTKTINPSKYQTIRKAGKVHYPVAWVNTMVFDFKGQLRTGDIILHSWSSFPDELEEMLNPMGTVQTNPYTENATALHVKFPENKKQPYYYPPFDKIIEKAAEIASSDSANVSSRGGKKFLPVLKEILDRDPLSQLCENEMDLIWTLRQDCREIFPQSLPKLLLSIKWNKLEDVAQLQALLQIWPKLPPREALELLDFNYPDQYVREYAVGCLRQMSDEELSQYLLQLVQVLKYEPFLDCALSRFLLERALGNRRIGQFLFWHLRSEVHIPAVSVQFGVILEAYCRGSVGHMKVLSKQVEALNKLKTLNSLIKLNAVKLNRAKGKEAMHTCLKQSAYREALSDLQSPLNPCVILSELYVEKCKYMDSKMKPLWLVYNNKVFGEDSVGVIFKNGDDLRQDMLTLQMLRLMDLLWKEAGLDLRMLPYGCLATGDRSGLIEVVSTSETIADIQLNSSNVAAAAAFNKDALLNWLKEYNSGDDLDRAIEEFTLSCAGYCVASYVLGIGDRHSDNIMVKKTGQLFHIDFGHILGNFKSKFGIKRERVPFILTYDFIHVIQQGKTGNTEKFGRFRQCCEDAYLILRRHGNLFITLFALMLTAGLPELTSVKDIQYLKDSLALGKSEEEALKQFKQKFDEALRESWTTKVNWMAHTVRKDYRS

Sequence of PIK3CA (human) (P42336 whole entry, looked up): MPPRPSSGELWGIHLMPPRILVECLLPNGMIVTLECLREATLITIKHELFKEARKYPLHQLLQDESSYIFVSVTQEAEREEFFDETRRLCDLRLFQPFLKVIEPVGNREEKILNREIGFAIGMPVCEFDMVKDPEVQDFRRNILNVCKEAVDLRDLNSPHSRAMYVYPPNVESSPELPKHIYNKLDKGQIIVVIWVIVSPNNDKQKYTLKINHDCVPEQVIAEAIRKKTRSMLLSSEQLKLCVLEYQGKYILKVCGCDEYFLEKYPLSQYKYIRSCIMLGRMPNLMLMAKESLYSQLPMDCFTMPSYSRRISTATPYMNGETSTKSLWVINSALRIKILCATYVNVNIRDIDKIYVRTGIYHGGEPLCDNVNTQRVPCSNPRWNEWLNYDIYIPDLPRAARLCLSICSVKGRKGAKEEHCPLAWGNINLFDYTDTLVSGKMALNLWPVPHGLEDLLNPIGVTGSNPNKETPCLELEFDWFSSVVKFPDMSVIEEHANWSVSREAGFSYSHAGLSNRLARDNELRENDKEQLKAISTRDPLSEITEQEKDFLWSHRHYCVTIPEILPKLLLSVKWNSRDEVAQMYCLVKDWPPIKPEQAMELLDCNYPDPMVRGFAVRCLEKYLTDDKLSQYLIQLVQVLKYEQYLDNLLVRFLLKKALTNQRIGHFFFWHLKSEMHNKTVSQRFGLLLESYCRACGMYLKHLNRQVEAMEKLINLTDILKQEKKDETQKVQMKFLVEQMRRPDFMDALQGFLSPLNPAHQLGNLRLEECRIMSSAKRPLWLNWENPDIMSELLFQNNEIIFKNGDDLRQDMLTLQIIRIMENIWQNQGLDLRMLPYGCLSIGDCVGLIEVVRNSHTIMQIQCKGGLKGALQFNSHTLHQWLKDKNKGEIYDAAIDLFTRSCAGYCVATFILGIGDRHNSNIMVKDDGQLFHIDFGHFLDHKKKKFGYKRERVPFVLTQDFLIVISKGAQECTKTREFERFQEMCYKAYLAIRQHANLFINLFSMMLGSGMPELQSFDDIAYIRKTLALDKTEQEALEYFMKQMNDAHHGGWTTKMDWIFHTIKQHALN

Compound | IC50 (PIK3CA (human)) [nM] | IC50 (PIK3CB (Human)) [nM]
COc1c(OCCCN2CCOCC2)ccc2c1N=C(NC(=O)c1cnc(N)s1)N1CCN=C21 | < 10 | < 10
COc1c(OCC2CN(C)CCO2)ccc2c1N=C(NC(=O)c1cccnc1)N1CCN=C21 (centres undefined) | < 10 | < 10
CNC(=O)Nc1ccc(C(=O)NC2=Nc3c(ccc(OCCCN4CCOCC4)c3OC)C3=NCCN23)cn1 | < 10 | < 10
COc1c(OCCCN)ccc2c1N=C(NC(=O)c1cccnc1)N1CCN=C21 | < 10 | < 10
COc1c(OCCCN2CCOCC2)ccc2c1N=C(NC(=O)c1ccc(NC(=O)NC(C)C)nc1)N1CCN=C21 | < 10 | < 10
COc1c(OCCCN2CCOCC2)ccc2c1N=C(NC(=O)c1cnc(N)c(Br)c1)N1CCN=C21 | < 10 | < 10
COc1cncc(C(=O)NC2=Nc3c(ccc(OCCCN4CCOCC4)c3OC)C3=NCCN23)c1 | < 10 | < 10
COc1c(OCCN(C)C)ccc2c1N=C(NC(=O)c1cccnc1)N1CCN=C21 | < 10 | < 10
COc1c(OCCCN2CCOCC2)ccc2c1N=C(NC(=O)c1cncn1C)N1CCN=C21 | < 10 | < 10
COc1c(OCCN(C)C)ccc2c1N=C(NC(=O)c1sc(C)nc1C)N1CCN=C21 | < 10 | < 10
COc1c(OCCCN2CCOCC2)ccc2c1N=C(NC(=O)c1sc(C)nc1C)N1CCN=C21 | < 10 | < 10
COc1c(OCCCN2CCOCC2)ccc2c1N=C(NC(=O)c1ccc(C)nc1)N1CCN=C21 | < 10 | < 10
COc1c(OCCCN(C)C)ccc2c1N=C(NC(=O)c1cnc(NCCN(C)C)nc1)N1CCN=C21 | < 10 | < 10
COc1c(OCCCN2CCOCC2)ccc2c1N=C(NC(=O)c1ccc(NCc3ccco3)nc1)N1CCN=C21 | < 10 | < 10
COc1c(OCCCN2CCOCC2)ccc2c1N=C(NC(=O)c1ccc(NC(=O)C(C)C)nc1)N1CCN=C21 | < 10 | < 10
CCN(CC)CCCOc1ccc2c(c1OC)N=C(NC(=O)c1cccnc1)N1CCN=C21 | < 10 | < 10
COc1c(OCCN2CCCCC2)ccc2c1N=C(NC(=O)c1cccnc1)N1CCN=C21 | < 10 | < 10
COc1c(OCCCN(C)C)ccc2c1N=C(NC(=O)c1ccc(N)nc1)N1CCN=C21 | < 10 | < 10
COc1c(OCCCN2CCOCC2)ccc2c1N=C(NC(=O)c1cnc(NCCN(C)C)nc1)N1CCN=C21 | < 10 | < 10
COc1c(OCCN2CCOCC2)ccc2c1N=C(NC(=O)c1cccnc1)N1CCN=C21 | < 10 | < 10

Compound | IC50 (PIK3CA (human)) [nM] | IC50 (PIK3CB (Human)) [nM]
COc1c(OCCCN2C[C@@H](C)O[C@@H](C)C2)ccc2c1N=C(NC(=O)c1ccc(N)nc1)N1CCN=C21 | < 10 | < 10
COc1c(OCCCN2C[C@@H](C)O[C@@H](C)C2)ccc2c1N=C(NC(=O)c1ccc(NC(C)=O)nc1)N1CCN=C21 | < 10 | < 10
COc1c(OCCCN(C)C)ccc2c1N=C(NC(=O)c1ccc[n+]([O-])c1)N1CCN=C21 | < 10 | 
COc1c(OCCCC2CN(CC3CCC3)CCO2)ccc2c1N=C(NC(=O)c1cccnc1)N1CCN=C21 (centres undefined) | < 10 | < 10
COc1c(OCCCN(C)C)ccc2c1N=C(NC(=O)c1cnc(N)s1)N1CCN=C21 | < 10 | < 10
COCCN1CCOC(CCCOc2ccc3c(c2OC)N=C(NC(=O)c2cccnc2)N2CCN=C32)C1 (centres undefined) | < 10 | < 10
COc1c(OCCCN2CCOCC2)ccc2c1N=C(NC(=O)c1cnc(NCCO)nc1)N1CCN=C21 | < 10 | < 10
COc1c(OCCCN(C)C)ccc2c1N=C(NC(=O)c1cnc(N)nc1)N1CCN=C21 | < 10 | < 10
COc1c(OCCCN2CCOCC2)ccc2c1N=C(NC(=O)c1ccc(N)nc1)N1CCN=C21 | < 10 | < 10
COc1c(OCCCN2CCOCC2)ccc2c1N=C(NC(=O)c1ccc(N3CC[C@@H](N)C3)nc1)N1CCN=C21 | < 10 | < 10
COc1c(OCCCN(C)C)ccc2c1N=C(NC(=O)c1cccnc1)N1CCN=C21 | < 10 | < 10
COc1c(OCCN2CCCC2)ccc2c1N=C(NC(=O)c1cccnc1)N1CCN=C21 | < 10 | < 10
COc1c(OCCCN2CCOCC2)ccc2c1N=C(NC(=O)c1cnc(N)nc1C)N1CCN=C21 | < 10 | < 10
CCN1CCOC(CCOc2ccc3c(c2OC)N=C(NC(=O)c2cccnc2)N2CCN=C32)C1 (centres undefined) | < 10 | < 10
COc1c(OCCCN2CCOCC2)ccc2c1N=C(NC(=O)c1ccc(NC(=O)C3CC3)nc1)N1CCN=C21 | < 10 | < 10
COc1c(OCCCN2CCOCC2)ccc2c1N=C(NC(=O)c1ccc(N3CC[C@H](N)C3)nc1)N1CCN=C21 | < 10 | < 10
COc1c(OCCCN2CCOCC2)ccc2c1N=C(NC(=O)c1cccnc1)N1CCN=C21 | < 10 | < 10
COc1c(OCCCN2CCOCC2)ccc2c1N=C(NC(=O)c1ccc(N(C)C)nc1)N1CCN=C21 | < 10 | < 10
COc1c(OCCCN2C[C@@H](C)O[C@@H](C)C2)ccc2c1N=C(NC(=O)c1cccnc1)N1CCN=C21 | < 10 | < 10
COc1c(OCCCN2CCOCC2)ccc2c1N=C(NC(=O)c1ccc(N)nc1C)N1CCN=C21 | < 10 | < 10

Compound | IC50 (PIK3CA (human)) [nM] | IC50 (PIK3CB (Human)) [nM]
COCCN1CCOC(COc2ccc3c(c2OC)N=C(NC(=O)c2cccnc2)N2CCN=C32)C1 (centres undefined) | < 10 | < 10
COCCNc1ccc(C(=O)NC2=Nc3c(ccc(OCCCN4CCOCC4)c3OC)C3=NCCN23)cn1 | < 10 | < 10
COc1c(OCCCN2CCOC(CO)C2)ccc2c1N=C(NC(=O)c1cccnc1)N1CCN=C21 (centres undefined) | < 10 | < 10
COc1c(OCCCN2C[C@@H](C)O[C@@H](C)C2)ccc2c1N=C(NC(=O)c1cncnc1)N1CCN=C21 | < 10 | < 10
CCCc1nc(N)ncc1C(=O)NC1=Nc2c(ccc(OCCCN3CCOCC3)c2OC)C2=NCCN12 | < 10 | < 10
COc1c(OCCCN2CCOCC2)ccc2c1N=C(NC(=O)c1ccnc(N)c1)N1CCN=C21 | < 10 | < 10
COc1c(OCCCN2C[C@@H](C)O[C@@H](C)C2)ccc2c1N=C(NC(=O)c1ccc(C)nc1)N1CCN=C21 | < 10 | < 10
COc1c(OCCCN2CCCCC2)ccc2c1N=C(NC(=O)c1cccnc1)N1CCN=C21 | < 10 | < 10
CCN(CC)CCOc1ccc2c(c1OC)N=C(NC(=O)c1cccnc1)N1CCN=C21 | < 10 | < 10
CNCCCOc1ccc2c(c1OC)N=C(NC(=O)c1cccnc1)N1CCN=C21 | < 10 | < 10
COCCNc1ncc(C(=O)NC2=Nc3c(ccc(OCCCN4CCOCC4)c3OC)C3=NCCN23)cn1 | < 10 | < 10
COc1c(OCC2CNCCO2)ccc2c1N=C(NC(=O)c1cccnc1)N1CCN=C21 (centres undefined) | < 10 | < 10
COc1c(OCCCN2CCOCC2)ccc2c1N=C(NC(=O)c1sc(N)nc1C)N1CCN=C21 | < 10 | < 10
COc1c(OCCCN2C[C@@H](C)O[C@@H](C)C2)ccc2c1N=C(NC(=O)c1sc(C)nc1C)N1CCN=C21 | < 10 | < 10
COc1c(OCCCN2CCOCC2)ccc2c1N=C(NC(=O)c1cncnc1)N1CCN=C21 | < 10 | < 10
COc1c(OCCCN2CCOCC2)ccc2c1N=C(NC(=O)c1cnc(N)o1)N1CCN=C21 | < 10 | < 10
COc1c(OCC(CO)CN2CCOCC2)ccc2c1N=C(NC(=O)c1cccnc1)N1CCN=C21 (centres undefined) | < 10 | < 10
COc1c(OCCN(C)C)ccc2c1N=C(NC(=O)c1cncnc1)N1CCN=C21 | < 10 | < 10
COc1c(OCCCN2C[C@@H](C)O[C@@H](C)C2)ccc2c1N=C(NC(=O)c1cnc(N)nc1)N1CCN=C21 | < 10 | < 10
COc1c(OCCCN2CCOCC2)ccc2c1N=C(NC(=O)c1ccc(F)nc1)N1CCN=C21 | < 10 | < 10
